The test system of one data set is E. coli ML-35p. In words: Bacterial membrane permeabilization assay, inner membrane (ONPG). Type of data set: cell-based, Escherichia coli. The note with it: ONPG marker; for effect on cytoplasmic membrane permeability, substance alone (in words): ¼ MIC. The source says: The method is based on the certain features of the specifically designed E. coli ML-35p bacterial strain. As its parental strain E. coli ML-35, this bacterium constitutively expresses cytoplasmic β-galactosidase, but is unable to transport β-galactoside containing substrates through the inner membrane in normal circumstances due to the lack of lactose permease. […] If the cytoplasmic membrane of the bacterium is damaged, the chromogenic marker o-nitrophenyl-β-D-galactoside (ONPG) penetrates into the cell and, when digested by bacterial β-galactosidase, produces a colored product o-nitrophenol. The accumulation of the latter can be spectrophotometrically detected at a wavelength of 420 nm.
Escherichia coli ML-35p was cultivated in the sterile 3% Trypticase soy broth (TSB) for 18 h at 37°C, then washed three times with 10 mM sodium phosphate buffer, pH 7.4 (10 min centrifugation at 600 g and 4°C), diluted up to the OD of 0.4 at 620 nm (1 × 10^8 CFU/ml concentration), and used immediately or kept on ice until the start of the test. […] Controls contained equivalent volume of acidified water instead of antimicrobial agent(s). The assay was started by adding the bacteria and was run at 37°C, with periodical shaking. Optical density (OD) measurement at 420 nm was performed every minute for 1–2 h using SpectraMax 250 Microplate Spectrophotometer (Molecular Devices, USA) and its SoftMax PRO software.
(A) Permeability of the inner membrane for a chromogenic marker o-nitrophenyl-β-D-galactoside (ONPG). ¼ of minimal inhibitory concentrations (MICs) of antimicrobial peptides (AMPs) and antibiotics were used when alone, and ¼ MIC of AMP + ¼ MIC of antibiotic when in combination. Curves illustrate ONPG degradation by the cytoplasmic β-galactosidase of bacteria, when the membranes are damaged by test substances. Curves slope and the time of their rising to the plateau correspond to the extent of this damage. […] Nitrocefin is a substrate for the periplasmic β-lactamase of the bacteria. RIF, rifampicin; PMB, polymyxin B; GEN, gentamicin; OFL, ofloxacin; OX, oxacillin.

In data set [1] the test system is A. baumannii 7226/16. In words: microbe, parasite or virus in culture. The note with it: Acinetobacter baumannii; A. baumannii 7226/16, drug-resistant clinical isolate. In kind it is cell-based. The procedure:
(§1) Prior to the “checkerboard” synergy test the minimal inhibitory concentrations (MIC) of individual substances were determined using broth microdilution assay. Testing was performed in 60-well polystyrene Terasaki microplates with V-shaped bottom generally according to the guidelines of the European Committee for Antimicrobial Susceptibility Testing with subtle modifications designed for AMP testing (Tossi et al., [1997]; Wiegand et al., [2008]). Cultivation of bacteria was carried out in 2.1% Müller-Hinton broth at 37°C with shaking. Two-fold serial dilutions of peptides, antibiotics and other antimicrobials were made with 10 mM sodium phosphate buffer, pH 7.4, containing 0.1% of BSA. The plates were preliminary incubated with 0.1% BSA for 1 h at 37°C to reduce a non-specific binding of peptides to the plates. After that BSA was removed, and serial dilutions were added into the plate wells in triplicates followed by the same volume of the suspension of bacterial cells in logarithmic phase of growth in concentration of 1 × 10^6 CFU/ml. After the 18 h overnight incubation at 37°C, the MIC value for each compound was determined as its lowest concentration completely inhibiting the visible growth of bacteria. The final results were calculated as median values based on 3–6 independent experiments.

Data set [2] concerns E. coli ESBL 521/17. In words: microbe, parasite or virus in culture. In kind it is cell-based. The note with it: Escherichia coli, ESBL521/17; E. coli ESBL 521/17, drug-resistant clinical isolate; square brackets = twice the maximal tested concentration. The procedure:
as §1

For data set [3], the system named is K. pneumoniae ESBL 344/17. Put plainly: microbe, parasite or virus in culture. In kind it is cell-based. The note with it: Klebsiella pneumoniae, ESBL344/17; K. pneumoniae ESBL 344/17, drug-resistant clinical isolate. The procedure:
as §1

Data set [4] relates to P. aeruginosa MDR 522/17. In words: microbe, parasite or virus in culture. The settings on record: Pseudomonas aeruginosa, MDR522/17; P. aeruginosa MDR 522/17, drug-resistant clinical isolate. In kind it is cell-based. On the procedure: as §1
Data set [5] deals with S. aureus 1399/17. Put plainly: microbe, parasite or virus in culture. The settings on record: Staphylococcus aureus; S. aureus 1399/17, drug-resistant clinical isolate; read-out: MIC. Type of data set: cell-based. On the procedure: as §1
Data set [6] relates to E. coli ESBL 521/17. In words: Checkerboard titration (FICI). Type of data set: cell-based, Escherichia coli. On the procedure:
(§2) The combined antimicrobial action of AMPs and other antimicrobial compounds was assessed using checkerboard titration approach under the conditions similar to that of the microdilution assay. According to checkerboard titration template, one component (A) of the combination was diluted along the rows of the plate, while the other (B) was diluted down the columns, thereby creating the variety of mixtures with different concentrations of tested compounds. 2.5 μl of corresponding solutions of the components A and B were added into each well of the plate. Into the first column and the last row the same amount of 10 mM sodium phosphate buffer, pH 7.4, containing 0.1% of BSA was introduced instead of the second component. Thus, all wells contained 5 μl of antimicrobial compounds solutions (solo or in combination). The same volume of bacterial suspension, prepared as described for microdilution assay, was added into each well. The results were recorded after the overnight incubation, visually indicating the presence or absence of the microbial growth in the corresponding wells. Based on the obtained data the isobolograms of combined action were plotted and/or Fractional Inhibitory Concentration Indices (FICI) were calculated. […] Depending on the minimal value of the FICI the combined effect of the combination was classified as antagonism (FICI > 2), independent action (1 < FICI ≤ 2), additivity (0.5 < FICI ≤ 1) or synergy (FICI ≤ 0.5), as is recommended in the literature and due to some drawbacks of the serial dilution method (Hsieh et al., [1993]; Orhan et al., [2005]; Fehri et al., [2007]). FICIs were assessed in 3–6 independent experiments and median values were used to define the nature of interaction.

Data set [7] has as its system A. baumannii 7226/16. Put plainly: Checkerboard titration (FICI). In kind it is cell-based, Acinetobacter baumannii. The procedure: as §2
Data set [8] deals with P. aeruginosa MDR 522/17. Put plainly: Checkerboard titration (FICI). Type of data set: cell-based, Pseudomonas aeruginosa. On the procedure: as §2
For data set [9], the system named is K. pneumoniae ESBL 344/17. In words: Checkerboard titration (FICI). Type of data set: cell-based, Klebsiella pneumoniae. The procedure:
as §2

Data set [10] concerns S. aureus 1399/17. In words: Checkerboard titration (FICI). Type of data set: cell-based, Staphylococcus aureus. The procedure: as §2
Setting [11] is: antibiotic in combination with ChBac3.4.
Where [12] appears, read: antibiotic in combination with PG-1.

Marks after values point to notes of the source that are not given here. Where no end group is shown, it is not given here.

On to `CNC(C)C1CCC(N)C(OC2C(N)CC(N)C(OC3OCC(C)(O)C(NC)C3O)C2O)O1` (centres unmarked) [Gentamicin], for which the “effect on cytoplasmic membrane permeability, substance alone (in words)” value (“effect … substance alone (in words)” below) in the data set on E. coli ML-35p is “no substantial increase”.

Regarding `CC[C@H](C)[C@H](NC(=O)[C@H](CCCCN)NC(=O)[C@H](CCC(=O)O)NC(=O)[C@H](CCCCN)NC(=O)[C@H](CO)NC(=O)[C@H](CCCCN)NC(=O)[C@H](CCCNC(=N)N)NC(=O)[C@H](Cc1ccccc1)NC(=O)[C@H](Cc1ccccc1)NC(=O)[C@H](CC(=O)O)NC(=O)CNC(=O)[C@H](CC(C)C)NC(=O)[C@@H](N)CC(C)C)C(=O)NCC(=O)N[C@@H](CCCCN)C(=O)N[C@@H](CCC(=O)O)C(=O)N[C@@H](Cc1ccccc1)C(=O)N[C@@H](CCCCN)C(=O)N[C@@H](CCCNC(=N)N)C(=O)N[C@H](C(=O)N[C@H](C(=O)N[C@@H](CCC(N)=O)C(=O)N[C@@H](CCCNC(=N)N)C(=O)N[C@H](C(=O)N[C@@H](CCCCN)C(=O)N[C@@H](CC(=O)O)C(=O)N[C@@H](Cc1ccccc1)C(=O)N[C@@H](CC(C)C)C(=O)N[C@@H](CCCNC(=N)N)C(=O)N[C@@H](CC(N)=O)C(=O)N[C@@H](CC(C)C)C(=O)N[C@H](C(=O)N1CCC[C@H]1C(=O)N[C@@H](CCCNC(=N)N)C(=O)N[C@H](C(=O)N[C@@H](CCC(=O)O)C(=O)N[C@@H](CO)C(=O)O)[C@@H](C)O)C(C)C)[C@@H](C)CC)C(C)C)[C@@H](C)CC` [LL-37], the “effect on cytoplasmic membrane permeability in presence of gentamicin vs peptide/protein alone (in words)” value in the data set on E. coli ML-35p (¼ MIC + ¼ MIC gentamicin) is “developing rather quickly”. Further, the “effect … substance alone (in words)” value with E. coli ML-35p is on record as “quite slow enhance of the membrane permeability”.

Regarding `CC1COc2c(N3CCN(C)CC3)c(F)cc3c(=O)c(C(=O)O)cn1c23` (centres unmarked) [Ofloxacin], the MIC with A. baumannii 7226/16 [1] is 25 µM; with E. coli ESBL 521/17 [2], 50 µM; in data set [3] it was 0.25 µM; in the data set with P. aeruginosa MDR 522/17 [4], greater than 50 µM; in the data set with S. aureus 1399/17 [5], greater than 50 µM. The “Minimal FICI” value is recorded as 0.75 with E. coli ESBL 521/17 [6] (setting [11]); 0.75 with E. coli ESBL 521/17 [6] (setting [12]); 0.5^* in the data set with A. baumannii 7226/16 [7] (setting [11]); 0.62 in the data set with A. baumannii 7226/16 [7] (setting [12]); 0.75 in the data set with P. aeruginosa MDR 522/17 [8] (setting [11]); 1.12 in the data set with P. aeruginosa MDR 522/17 [8] (setting [12]). Further, the “Minimal FICI” value in data set [9] (setting [11]) was 0.75; in data set [9] (setting [12]), 0.5; in the data set with S. aureus 1399/17 [10] (setting [11]), 0.125^*; in the data set on S. aureus 1399/17 [10] (setting [12]), 0.56.

As to `Cc1onc(-c2ccccc2)c1C(=O)N[C@@H]1C(=O)N2[C@@H]1SC(C)(C)[C@@H]2C(=O)O` [Oxacillin], the MIC (in the data set with A. baumannii 7226/16 [1]; in the data set with E. coli ESBL 521/17 [2]; in data set [3]; with P. aeruginosa MDR 522/17 [4]; in the data set on S. aureus 1399/17 [5]) was greater than 50 µM each time. Also, the “Minimal FICI” value turned out to be 1.12 in the data set with E. coli ESBL 521/17 [6] (setting [11]); 1.12 in the data set on E. coli ESBL 521/17 [6] (setting [12]); 1.12 with A. baumannii 7226/16 [7] (setting [11]); 0.75 in the data set with A. baumannii 7226/16 [7] (setting [12]); 1.12 in the data set with P. aeruginosa MDR 522/17 [8] (setting [11]); 1.12 in the data set on P. aeruginosa MDR 522/17 [8] (setting [12]). Also, the “Minimal FICI” value in [9] (setting [11]) is 1.12; in data set [9] (setting [12]), 1.12; in the data set with S. aureus 1399/17 [10] (setting [11]) it was 0.25^*; in the data set on S. aureus 1399/17 [10] (setting [12]) it was 1.12.

With “RFRLPFRRPPIRIHPPPFYPPFRRFL-NH2 (C-terminus assumed) [ChBac3.4]”, the “development of membrane-damaging effect in combination with rifampicin (in words)” value in the data set with E. coli ML-35p (¼ MIC + ¼ MIC rifampicin) was “slight acceleration”. Besides, the “effect … substance alone (in words)” value in the data set on E. coli ML-35p was “no substantial effect”.

The record behind these values is publication PMC6503114, “Application of Antimicrobial Peptides of the Innate Immune System in Combination With Conventional Antibiotics—A Novel Way to Combat Antibiotic Resistance?” (Frontiers in Cellular and Infection Microbiology, 2019).
